# Peptide text beside a SMILES is read from it.
# Legend:
# [1] = system: mammalian plasma and tissue peptidases
# [2] = in vivo
hydrolysis by mammalian plasma and tissue peptidases [1],half life [2],SMILES
resist rapid hydrolysis,≥ 6 h,N[C@H](Cc1c[nH]c2ccccc12)C(=O)N[C@H](Cc1ccccc1)C(=O)O [D-tryptophanyl-D-phenylalanine] (HELM PEPTIDE1{[dW].[dF]}$$$$V2.0)
resist rapid hydrolysis,≥ 6 h,N[C@H](Cc1c[nH]c2ccccc12)C(=O)N[C@H](Cc1c[nH]c2ccccc12)C(=O)O [D-tryptophanyl-D-tryptophan] (HELM PEPTIDE1{[dW].[dW]}$$$$V2.0)
resist rapid hydrolysis,≥ 6 h,N[C@H](Cc1ccccc1)C(=O)N[C@H](Cc1ccccc1)C(=O)O [D-phenylalanyl-D-phenylalanine] (HELM PEPTIDE1{[dF].[dF]}$$$$V2.0)
resist rapid hydrolysis,≥ 6 h,N[C@H](Cc1ccccc1)C(=O)N[C@H](Cc1c[nH]c2ccccc12)C(=O)O [D-phenylalanyl-D-tryptophan] (HELM PEPTIDE1{[dF].[dW]}$$$$V2.0)
